Source: PMC11480411, “Mucosal sugars delineate pyrazine vs pyrazinone autoinducer signaling in Klebsiella oxytoca” (Nature Communications, 2024)
Several values for one entry are separate records, joined by “and”; a condition that tells them apart may be missing. Equal entries are not always repeated.

Experiments:
Format in all cases: cell-based
GPR21 = molecular target: T1, GPR21 (Homo sapiens, UniProt Q99679); experiment: PRESTO-Tango GPCR screen; details: 100 µM
T1 construct: purchased PRESTO-Tango GPCR kit (Roth lab / Addgene)
Outline: (§1)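 Cells were HTLA, a HEK293 line carrying β-arrestin-TEV and tTA-luciferase, transfected with each receptor-Tango plasmid, then exposed to compound at 100 μM final for 20 h.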

GPR44 = molecular target: T2, GPR44 (Homo sapiens, UniProt Q9Y5Y4); experiment: PRESTO-Tango GPCR screen; details: 100 µM
T2 construct: purchased PRESTO-Tango GPCR kit (Roth lab / Addgene)
Outline: as §1

ADORA1 = molecular target: T3, ADORA1 (Homo sapiens, UniProt P30542); experiment: PRESTO-Tango GPCR screen; details: 100 µM
T3 construct: purchased PRESTO-Tango GPCR kit (Roth lab / Addgene)
Outline: as §1

HCTR1 = molecular target: T4, HCTR1 (Homo sapiens, UniProt O43613); experiment: PRESTO-Tango GPCR screen; details: 100 µM
T4 construct: purchased PRESTO-Tango GPCR kit (Roth lab / Addgene)
Outline: as §1

NMUR1 = molecular target: T5, NMUR1 (Homo sapiens, UniProt Q9HB89); experiment: PRESTO-Tango GPCR screen; details: 100 µM
T5 construct: purchased PRESTO-Tango GPCR kit (Roth lab / Addgene)
Outline: as §1

GPR45 = molecular target: T6, GPR45 (Homo sapiens, UniProt Q9Y5Y3); experiment: PRESTO-Tango GPCR screen; details: 100 µM
T6 construct: purchased PRESTO-Tango GPCR kit (Roth lab / Addgene)
Outline: as §1

GPRC5B = molecular target: T7, GPRC5B (Homo sapiens, UniProt Q9NZH0); experiment: PRESTO-Tango GPCR screen; details: 100 µM
T7 construct: purchased PRESTO-Tango GPCR kit (Roth lab / Addgene)
Outline: as §1

ADCYAP1R1 = molecular target: T8, ADCYAP1R1 (Homo sapiens, UniProt P41586); experiment: PRESTO-Tango GPCR screen; details: 100 µM
T8 construct: purchased PRESTO-Tango GPCR kit (Roth lab / Addgene)
Outline: as §1

GPR25 = molecular target: T9, GPR25 (Homo sapiens, UniProt O00155); experiment: PRESTO-Tango GPCR screen; details: 100 µM
T9 construct: purchased PRESTO-Tango GPCR kit (Roth lab / Addgene)
Outline: as §1

MTNR1B = molecular target: T10, MTNR1B (Homo sapiens, UniProt P49286); experiment: PRESTO-Tango GPCR screen; details: 100 µM
T10 construct: purchased PRESTO-Tango GPCR kit (Roth lab / Addgene)
Outline: as §1

AVPR1B = molecular target: T11, AVPR1B (Homo sapiens, UniProt P47901); experiment: PRESTO-Tango GPCR screen; details: 100 µM
T11 construct: purchased PRESTO-Tango GPCR kit (Roth lab / Addgene)
Outline: as §1

CXCR3 = molecular target: T12, CXCR3 (Homo sapiens, UniProt P49682); experiment: PRESTO-Tango GPCR screen; details: 100 µM
T12 construct: purchased PRESTO-Tango GPCR kit (Roth lab / Addgene)
Outline: as §1

GPR113 = molecular target: T13, GPR113 (Homo sapiens, UniProt Q8IZF5); experiment: PRESTO-Tango GPCR screen; details: 100 µM
T13 construct: purchased PRESTO-Tango GPCR kit (Roth lab / Addgene)
Outline: as §1

GPR149 = molecular target: T14, GPR149 (Homo sapiens, UniProt Q86SP6); experiment: PRESTO-Tango GPCR screen; details: 100 µM
T14 construct: purchased PRESTO-Tango GPCR kit (Roth lab / Addgene)
Outline: as §1

APJ = molecular target: T15, APJ (Homo sapiens, UniProt P35414); experiment: PRESTO-Tango GPCR screen; details: 100 µM
T15 construct: purchased PRESTO-Tango GPCR kit (Roth lab / Addgene)
Outline: as §1

HTR6 = molecular target: T16, HTR6 (Homo sapiens, UniProt P50406); experiment: PRESTO-Tango GPCR screen; details: 100 µM
T16 construct: purchased PRESTO-Tango GPCR kit (Roth lab / Addgene)
Outline: as §1

FPR3 = molecular target: T17, FPR3 (Homo sapiens, UniProt P25089); experiment: PRESTO-Tango GPCR screen; details: 100 µM
T17 construct: purchased PRESTO-Tango GPCR kit (Roth lab / Addgene)
Outline: as §1

GPR65 = molecular target: T18, GPR65 (Homo sapiens, UniProt Q8IYL9); experiment: PRESTO-Tango GPCR screen; details: 100 µM
T18 construct: purchased PRESTO-Tango GPCR kit (Roth lab / Addgene)
Outline: as §1

CYSLTR2 = molecular target: T19, CYSLTR2 (Homo sapiens, UniProt Q9NS75); experiment: PRESTO-Tango GPCR screen; details: 100 µM
T19 construct: purchased PRESTO-Tango GPCR kit (Roth lab / Addgene)
Outline: as §1

ELTD1 = molecular target: T20, ELTD1 (Homo sapiens, UniProt Q9HBW9); experiment: PRESTO-Tango GPCR screen; details: 100 µM
T20 construct: purchased PRESTO-Tango GPCR kit (Roth lab / Addgene)
Outline: as §1

HTR5 = molecular target: T21, HTR5 (Homo sapiens, UniProt P47898); experiment: PRESTO-Tango GPCR screen; details: 100 µM
T21 construct: purchased PRESTO-Tango GPCR kit (Roth lab / Addgene)
Outline: as §1

GPR153 = molecular target: T22, GPR153 (Homo sapiens, UniProt Q6NV75); experiment: PRESTO-Tango GPCR screen; details: 100 µM
T22 construct: purchased PRESTO-Tango GPCR kit (Roth lab / Addgene)
Outline: as §1

CXCR6 = molecular target: T23, CXCR6 (Homo sapiens, UniProt O00574); experiment: PRESTO-Tango GPCR screen; details: 100 µM
T23 construct: purchased PRESTO-Tango GPCR kit (Roth lab / Addgene)
Outline: as §1

F2RL3 = molecular target: T24, F2RL3 (Homo sapiens, UniProt Q96RI0); experiment: PRESTO-Tango GPCR screen; details: 100 µM
T24 construct: purchased PRESTO-Tango GPCR kit (Roth lab / Addgene)
Outline: as §1

AGTR1 = molecular target: T25, AGTR1 (Homo sapiens, UniProt P30556); experiment: PRESTO-Tango GPCR screen; details: 100 µM
T25 construct: purchased PRESTO-Tango GPCR kit (Roth lab / Addgene)
Outline: as §1

MC2R = molecular target: T26, MC2R (Homo sapiens, UniProt Q01718); experiment: PRESTO-Tango GPCR screen; details: 100 µM
T26 construct: purchased PRESTO-Tango GPCR kit (Roth lab / Addgene)
Outline: as §1

HRH3 = molecular target: T27, HRH3 (Homo sapiens, UniProt Q9Y5N1); experiment: PRESTO-Tango GPCR screen and dose-response; details: for HRH3 dose-response raw reporter signal (Fig. 5b source data): replicate wells
T27 construct: expressed in transfected cells; host or cells: HTLA cells (HEK293 line stably expressing β-arrestin-TEV and tTA-Luciferase)
Outline: (§2)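 HEK293 HTLA line (stable β-arrestin-TEV, tTA-luciferase); receptor-Tango transient transfection, PEI; 20 h compound exposure at 100 μM final; luciferase luminescence; fold vs PBS. Dose curves 10^−4–10^−15 M.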

HRH1 = molecular target: T28, HRH1 (Homo sapiens, UniProt P35367); experiment: PRESTO-Tango GPCR screen and dose-response; details: for HRH1 dose-response raw reporter signal (Fig. 5b source data): replicate wells
T28 construct: expressed in transfected cells; host or cells: HTLA cells (HEK293 line stably expressing β-arrestin-TEV and tTA-Luciferase)
Outline: as §2

T27 sequence (Q9Y5N1 whole entry): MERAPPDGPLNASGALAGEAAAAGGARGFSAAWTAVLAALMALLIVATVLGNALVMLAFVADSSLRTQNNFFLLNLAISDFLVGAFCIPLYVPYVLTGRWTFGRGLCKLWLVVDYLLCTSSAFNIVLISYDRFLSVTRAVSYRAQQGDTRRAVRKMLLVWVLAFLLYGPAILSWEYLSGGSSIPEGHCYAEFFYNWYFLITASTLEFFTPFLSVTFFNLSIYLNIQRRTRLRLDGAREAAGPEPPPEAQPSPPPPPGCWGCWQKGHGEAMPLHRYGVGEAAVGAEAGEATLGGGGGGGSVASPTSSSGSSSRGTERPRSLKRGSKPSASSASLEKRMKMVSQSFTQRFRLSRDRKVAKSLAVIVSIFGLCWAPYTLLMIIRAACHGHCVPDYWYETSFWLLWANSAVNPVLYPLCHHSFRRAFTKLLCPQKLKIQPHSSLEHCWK
T28 sequence (P35367 whole entry): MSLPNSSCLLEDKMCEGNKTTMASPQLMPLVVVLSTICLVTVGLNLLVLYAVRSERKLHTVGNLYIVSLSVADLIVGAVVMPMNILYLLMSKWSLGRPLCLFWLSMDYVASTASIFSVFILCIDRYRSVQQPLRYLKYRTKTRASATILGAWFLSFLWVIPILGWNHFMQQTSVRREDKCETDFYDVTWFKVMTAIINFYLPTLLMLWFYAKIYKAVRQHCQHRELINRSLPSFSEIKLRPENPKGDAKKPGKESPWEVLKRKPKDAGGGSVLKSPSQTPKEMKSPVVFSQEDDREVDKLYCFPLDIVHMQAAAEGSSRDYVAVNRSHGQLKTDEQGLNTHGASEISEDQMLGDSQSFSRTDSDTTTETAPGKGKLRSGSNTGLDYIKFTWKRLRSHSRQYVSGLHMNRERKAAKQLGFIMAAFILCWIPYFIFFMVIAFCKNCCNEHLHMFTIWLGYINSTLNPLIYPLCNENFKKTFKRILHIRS
T17 sequence (P25089 whole entry): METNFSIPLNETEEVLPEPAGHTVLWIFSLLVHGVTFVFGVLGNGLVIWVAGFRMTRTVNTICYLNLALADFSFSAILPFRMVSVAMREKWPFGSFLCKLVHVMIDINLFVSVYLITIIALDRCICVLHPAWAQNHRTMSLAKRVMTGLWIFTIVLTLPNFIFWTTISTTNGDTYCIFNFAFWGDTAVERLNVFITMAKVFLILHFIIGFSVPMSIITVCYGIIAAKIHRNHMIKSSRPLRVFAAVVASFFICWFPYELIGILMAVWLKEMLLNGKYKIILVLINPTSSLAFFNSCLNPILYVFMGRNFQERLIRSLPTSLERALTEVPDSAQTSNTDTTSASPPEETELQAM
T1 sequence (Q99679 whole entry): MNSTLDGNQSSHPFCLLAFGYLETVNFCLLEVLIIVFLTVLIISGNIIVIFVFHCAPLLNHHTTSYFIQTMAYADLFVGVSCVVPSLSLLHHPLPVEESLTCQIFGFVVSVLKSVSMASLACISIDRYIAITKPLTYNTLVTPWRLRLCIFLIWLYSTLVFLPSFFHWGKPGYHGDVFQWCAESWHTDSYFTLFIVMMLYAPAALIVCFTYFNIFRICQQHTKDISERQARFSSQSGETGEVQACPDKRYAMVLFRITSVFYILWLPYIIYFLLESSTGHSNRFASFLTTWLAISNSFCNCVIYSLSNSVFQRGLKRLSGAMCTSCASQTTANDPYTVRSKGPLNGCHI
T7 sequence (Q9NZH0 29-403): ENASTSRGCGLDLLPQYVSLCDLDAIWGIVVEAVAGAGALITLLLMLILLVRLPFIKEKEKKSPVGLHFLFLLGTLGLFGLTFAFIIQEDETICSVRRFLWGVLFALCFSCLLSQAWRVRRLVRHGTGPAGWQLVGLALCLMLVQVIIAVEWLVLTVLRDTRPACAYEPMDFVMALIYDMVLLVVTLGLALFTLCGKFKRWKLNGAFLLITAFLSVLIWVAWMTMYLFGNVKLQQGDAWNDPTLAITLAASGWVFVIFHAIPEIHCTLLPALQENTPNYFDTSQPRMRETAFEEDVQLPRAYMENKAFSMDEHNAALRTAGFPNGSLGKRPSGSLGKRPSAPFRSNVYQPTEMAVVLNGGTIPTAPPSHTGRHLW
T25 sequence (P30556 whole entry): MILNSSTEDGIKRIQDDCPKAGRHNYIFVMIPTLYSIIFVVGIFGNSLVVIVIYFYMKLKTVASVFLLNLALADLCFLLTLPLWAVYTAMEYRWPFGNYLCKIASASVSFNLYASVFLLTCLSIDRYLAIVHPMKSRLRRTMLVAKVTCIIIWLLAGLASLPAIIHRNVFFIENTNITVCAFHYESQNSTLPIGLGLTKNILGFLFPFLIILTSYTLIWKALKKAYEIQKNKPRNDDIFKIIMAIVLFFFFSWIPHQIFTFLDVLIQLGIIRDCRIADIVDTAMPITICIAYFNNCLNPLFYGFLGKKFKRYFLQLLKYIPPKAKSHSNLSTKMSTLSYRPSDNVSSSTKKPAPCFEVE
T4 sequence (O43613 whole entry): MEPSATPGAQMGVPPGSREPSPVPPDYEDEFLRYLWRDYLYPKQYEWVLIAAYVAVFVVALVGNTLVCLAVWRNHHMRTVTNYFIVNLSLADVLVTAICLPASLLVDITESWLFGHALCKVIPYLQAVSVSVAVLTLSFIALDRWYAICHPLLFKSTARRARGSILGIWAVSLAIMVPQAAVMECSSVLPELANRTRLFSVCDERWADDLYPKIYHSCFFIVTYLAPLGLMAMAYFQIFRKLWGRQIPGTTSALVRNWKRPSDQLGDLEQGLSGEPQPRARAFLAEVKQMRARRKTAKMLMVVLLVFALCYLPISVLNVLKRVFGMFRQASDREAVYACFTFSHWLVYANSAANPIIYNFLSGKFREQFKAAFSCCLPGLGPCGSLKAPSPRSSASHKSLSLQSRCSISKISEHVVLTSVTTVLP
T18 sequence (Q8IYL9 whole entry): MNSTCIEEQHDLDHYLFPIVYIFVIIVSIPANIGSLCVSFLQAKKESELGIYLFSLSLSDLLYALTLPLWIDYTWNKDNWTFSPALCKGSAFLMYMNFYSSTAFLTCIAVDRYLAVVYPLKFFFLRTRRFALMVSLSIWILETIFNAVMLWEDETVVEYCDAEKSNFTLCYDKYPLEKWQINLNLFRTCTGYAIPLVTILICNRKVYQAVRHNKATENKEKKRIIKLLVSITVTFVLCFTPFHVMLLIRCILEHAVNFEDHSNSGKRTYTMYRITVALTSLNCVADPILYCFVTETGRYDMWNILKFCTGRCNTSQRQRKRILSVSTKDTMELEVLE
T15 sequence (P35414 whole entry): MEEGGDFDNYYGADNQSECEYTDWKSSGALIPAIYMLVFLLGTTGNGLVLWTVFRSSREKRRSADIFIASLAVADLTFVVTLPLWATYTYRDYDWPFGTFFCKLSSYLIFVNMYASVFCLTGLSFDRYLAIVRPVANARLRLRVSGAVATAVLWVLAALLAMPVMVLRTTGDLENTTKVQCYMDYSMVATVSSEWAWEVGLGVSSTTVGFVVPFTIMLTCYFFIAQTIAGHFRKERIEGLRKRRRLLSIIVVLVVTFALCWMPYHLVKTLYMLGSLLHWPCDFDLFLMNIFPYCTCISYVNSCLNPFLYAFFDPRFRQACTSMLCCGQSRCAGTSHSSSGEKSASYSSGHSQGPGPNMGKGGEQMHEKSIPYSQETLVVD
T10 sequence (P49286 whole entry): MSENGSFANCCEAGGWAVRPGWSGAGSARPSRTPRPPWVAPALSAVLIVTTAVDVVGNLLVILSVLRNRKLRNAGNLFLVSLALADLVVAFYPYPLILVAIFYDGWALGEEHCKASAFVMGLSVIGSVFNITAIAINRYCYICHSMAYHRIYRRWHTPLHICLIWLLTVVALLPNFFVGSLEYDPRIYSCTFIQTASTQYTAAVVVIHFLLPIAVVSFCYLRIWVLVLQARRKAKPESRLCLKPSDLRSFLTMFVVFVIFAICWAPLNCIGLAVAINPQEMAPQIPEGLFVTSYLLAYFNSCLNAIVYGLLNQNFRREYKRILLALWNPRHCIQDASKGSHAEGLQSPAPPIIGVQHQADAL
T26 sequence (Q01718 whole entry): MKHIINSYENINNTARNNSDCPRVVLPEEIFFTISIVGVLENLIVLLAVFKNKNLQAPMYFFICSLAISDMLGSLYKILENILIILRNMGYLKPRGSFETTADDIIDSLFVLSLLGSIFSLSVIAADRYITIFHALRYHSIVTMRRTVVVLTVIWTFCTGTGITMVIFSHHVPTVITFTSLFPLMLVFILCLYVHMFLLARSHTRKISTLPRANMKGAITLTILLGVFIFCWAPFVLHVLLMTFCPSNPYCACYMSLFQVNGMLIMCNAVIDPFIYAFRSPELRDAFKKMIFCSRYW
T8 sequence (P41586 21-468): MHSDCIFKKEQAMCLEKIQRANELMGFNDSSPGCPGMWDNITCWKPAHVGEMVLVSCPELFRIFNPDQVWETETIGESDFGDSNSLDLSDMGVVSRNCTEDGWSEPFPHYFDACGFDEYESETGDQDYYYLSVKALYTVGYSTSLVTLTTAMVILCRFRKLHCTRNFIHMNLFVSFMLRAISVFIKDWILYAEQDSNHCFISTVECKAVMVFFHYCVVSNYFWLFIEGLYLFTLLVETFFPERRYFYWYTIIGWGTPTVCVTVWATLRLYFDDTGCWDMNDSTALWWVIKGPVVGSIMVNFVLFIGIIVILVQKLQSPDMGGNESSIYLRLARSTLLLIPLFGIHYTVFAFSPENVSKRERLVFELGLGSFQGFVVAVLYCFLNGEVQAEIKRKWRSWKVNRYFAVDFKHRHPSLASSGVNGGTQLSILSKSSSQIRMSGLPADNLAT

SMILES: CC(C)Cc1ncc(CCCNC(=N)N)[nH]c1=O [compound 3]
- GPCR activation (heatmap value) (GPR21): 1.034
- GPCR activation (heatmap value) (GPR44): 0.23
- GPCR activation (heatmap value) (ADORA1): 0.2527
- GPCR activation (heatmap value) (HCTR1): -0.3941
- GPCR activation (heatmap value) (NMUR1): -0.191
- GPCR activation (heatmap value) (GPR45): 0.4781
- GPCR activation (heatmap value) (GPRC5B): 0.6932
- GPCR activation (heatmap value) (ADCYAP1R1): 0.214
- GPCR activation (heatmap value) (GPR25): -0.8885
- GPCR activation (heatmap value) (MTNR1B): -0.5682
- GPCR activation (heatmap value) (AVPR1B): 0.6298
- GPCR activation (heatmap value) (CXCR3): 0.3957
- GPCR activation (heatmap value) (GPR113): -0.04557
- GPCR activation (heatmap value) (GPR149): 0.9394
- GPCR activation (heatmap value) (APJ): 0.6044
- GPCR activation (heatmap value) (HTR6): 0.5944
- GPCR activation (heatmap value) (FPR3): 0.01401
- GPCR activation (heatmap value) (GPR65): -0.2267
- GPCR activation (heatmap value) (CYSLTR2): -0.2194
- GPCR activation (heatmap value) (ELTD1): 0.3234
- GPCR activation (heatmap value) (HTR5): -0.08015
- GPCR activation (heatmap value) (GPR153): 0.1913
- GPCR activation (heatmap value) (CXCR6): 0.09324
- GPCR activation (heatmap value) (F2RL3): 0.3497
- GPCR activation (heatmap value) (AGTR1): 0.0619
- GPCR activation (heatmap value) (MC2R): 0.1631
- GPCR activation (heatmap value) (HRH3; HRH3, 100 µM): -0.154
- HRH3 dose-response raw reporter signal (Fig. 5b source data) (HRH3; Log(10)Conc (M) -4): 248 and 233 and 159
- HRH3 dose-response raw reporter signal (Fig. 5b source data) (HRH3; Log(10)Conc (M) -5): 121 and 136 and 127
- HRH3 dose-response raw reporter signal (Fig. 5b source data) (HRH3; Log(10)Conc (M) -6): 224 and 147 and 106
- HRH3 dose-response raw reporter signal (Fig. 5b source data) (HRH3; Log(10)Conc (M) -7): 127 and 100 and 124
- HRH3 dose-response raw reporter signal (Fig. 5b source data) (HRH3; Log(10)Conc (M) -8): 165 and 200 and 159
- HRH3 dose-response raw reporter signal (Fig. 5b source data) (HRH3; Log(10)Conc (M) -9): 144 and 133 and 142
- HRH3 dose-response raw reporter signal (Fig. 5b source data) (HRH3; Log(10)Conc (M) -10): 130 and 100 and 103
- HRH3 dose-response raw reporter signal (Fig. 5b source data) (HRH3; Log(10)Conc (M) -11): 156 and 177 and 165
- HRH3 dose-response raw reporter signal (Fig. 5b source data) (HRH3; Log(10)Conc (M) -12): 103 and 171 and 100
- HRH3 dose-response raw reporter signal (Fig. 5b source data) (HRH3; Log(10)Conc (M) -13): 124 and 189 and 112
- HRH3 dose-response raw reporter signal (Fig. 5b source data) (HRH3; Log(10)Conc (M) -14): 115 and 200 and 124
- HRH3 dose-response raw reporter signal (Fig. 5b source data) (HRH3; Log(10)Conc (M) -15): 106 and 271 and 127
- GPCR activation (heatmap value) (HRH1; HRH1, 100 µM): 0.7784
- HRH1 dose-response raw reporter signal (Fig. 5b source data) (HRH1; Log(10)Conc (M) -4): 68060 and 70767
- HRH1 dose-response raw reporter signal (Fig. 5b source data) (HRH1; Log(10)Conc (M) -5): 51882 and 55219
- HRH1 dose-response raw reporter signal (Fig. 5b source data) (HRH1; Log(10)Conc (M) -6): 48232 and 47554
- HRH1 dose-response raw reporter signal (Fig. 5b source data) (HRH1; Log(10)Conc (M) -7): 45272 and 47466
- HRH1 dose-response raw reporter signal (Fig. 5b source data) (HRH1; Log(10)Conc (M) -8): 44320 and 47843
- HRH1 dose-response raw reporter signal (Fig. 5b source data) (HRH1; Log(10)Conc (M) -9): 43919 and 48335
- HRH1 dose-response raw reporter signal (Fig. 5b source data) (HRH1; Log(10)Conc (M) -10): 42578 and 45208
- HRH1 dose-response raw reporter signal (Fig. 5b source data) (HRH1; Log(10)Conc (M) -11): 43999 and 46555
- HRH1 dose-response raw reporter signal (Fig. 5b source data) (HRH1; Log(10)Conc (M) -12): 42215 and 46142
- HRH1 dose-response raw reporter signal (Fig. 5b source data) (HRH1; Log(10)Conc (M) -13): 45172 and 46997
- HRH1 dose-response raw reporter signal (Fig. 5b source data) (HRH1; Log(10)Conc (M) -14): 41526 and 48557
- HRH1 dose-response raw reporter signal (Fig. 5b source data) (HRH1; Log(10)Conc (M) -15): 37080 and 42401
